# Test results reported in US5607967A, “Treatment of alzheimer's disease with 5-(tetradecyloxy)-2-furan carboxylic acid” (Merck & Co., Inc., priority 1994, dated 1997).
# What was measured:
# GR/NER chimeric receptor [1] = test: Activation of GR/NER in COS-7 cells (luciferase); details: for Fold of stimulation GR/NER: no TOFA
# Description: The ligand dependent transcription assays were performed as described in Example 4. The transfected COS cells were treated with dopamine, TOFA, or with the combination of TOFA and dopamine at the indicated concentrations and tested for luciferase activity.
# GR/NER chimeric receptor [2] = test: Activation of GR/NER in CV1 cells (luciferase); details: for Fold of stimulation GR/NER: no TOFA
# Description: The ligand dependent transcription assays were performed as described in Example 4, using CV1 cells in place of COS cells. The transfected CV1 cells were treated with dopamine, TOFA, or with a combination of TOFA and dopamine at the indicated concentrations and tested for luciferase activity.
# CV1 cells were co-transfected with the MMTV-Luciferase reporter gene (pJA358) and the GR/NER chimeric receptor as described in Example 4. The cells were treated with increasing amount of the dopamine D1 receptor antagonist SCH 23390 with or without 50 μM […] dopamine.
# [3] = test system: Dopamine D2 receptor antagonist (Haloperidol) induced catalepsy; test: Haloperidol induced catalepsy (Bar method); format: in vivo, rat; details: carrier pretreatment, 24 h later 0.1 mg/kg Haloperidol
# [4] = molecular target: T1, GR/PPAR chimeric receptor (Mus musculus, UniProt P23204); test: Ligand dependent transcription assay, GR/PPAR chimeric receptor with MMTV-luciferase reporter; format: cell-based
# T1 construct: COS cells, MMTV-luciferase
# T1 sequence (P23204 1-468): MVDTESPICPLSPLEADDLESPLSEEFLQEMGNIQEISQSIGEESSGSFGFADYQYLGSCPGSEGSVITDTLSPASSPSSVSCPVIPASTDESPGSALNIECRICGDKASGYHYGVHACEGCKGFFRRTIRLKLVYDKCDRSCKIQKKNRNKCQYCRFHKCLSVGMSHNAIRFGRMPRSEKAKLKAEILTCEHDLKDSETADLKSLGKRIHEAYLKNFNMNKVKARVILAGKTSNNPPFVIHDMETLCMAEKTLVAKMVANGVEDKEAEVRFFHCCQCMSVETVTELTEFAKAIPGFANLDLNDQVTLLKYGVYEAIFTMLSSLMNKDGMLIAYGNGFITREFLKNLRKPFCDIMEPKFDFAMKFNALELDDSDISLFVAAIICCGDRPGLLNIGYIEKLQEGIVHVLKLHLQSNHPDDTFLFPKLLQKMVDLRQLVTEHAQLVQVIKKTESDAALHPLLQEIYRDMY
# T1 sequence (P06537 1-792 partner): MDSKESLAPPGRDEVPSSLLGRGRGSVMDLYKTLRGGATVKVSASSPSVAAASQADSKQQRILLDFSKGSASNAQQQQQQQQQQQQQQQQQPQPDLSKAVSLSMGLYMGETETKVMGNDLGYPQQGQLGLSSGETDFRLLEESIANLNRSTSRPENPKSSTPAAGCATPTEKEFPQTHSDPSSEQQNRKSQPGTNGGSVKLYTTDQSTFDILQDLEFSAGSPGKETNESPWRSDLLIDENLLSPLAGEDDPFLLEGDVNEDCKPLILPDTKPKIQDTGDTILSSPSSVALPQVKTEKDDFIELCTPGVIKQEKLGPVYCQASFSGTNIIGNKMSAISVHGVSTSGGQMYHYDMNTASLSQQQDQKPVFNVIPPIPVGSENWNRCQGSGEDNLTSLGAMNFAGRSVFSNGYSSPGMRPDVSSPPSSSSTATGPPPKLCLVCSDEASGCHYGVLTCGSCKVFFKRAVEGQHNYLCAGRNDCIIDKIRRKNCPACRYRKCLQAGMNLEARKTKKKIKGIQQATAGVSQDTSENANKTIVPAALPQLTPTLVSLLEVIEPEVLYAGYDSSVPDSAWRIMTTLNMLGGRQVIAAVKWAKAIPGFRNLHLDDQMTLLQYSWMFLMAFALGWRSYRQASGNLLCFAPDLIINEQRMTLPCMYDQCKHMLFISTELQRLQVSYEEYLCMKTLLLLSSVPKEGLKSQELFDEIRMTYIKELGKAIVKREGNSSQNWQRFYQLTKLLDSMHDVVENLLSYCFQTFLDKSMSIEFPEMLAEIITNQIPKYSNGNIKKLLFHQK
# Description: (§1) Similar hybrid receptors GR/NER, GR/NUC and GR/PPAR, in identical expression plasmid backgrounds were prepared essentially as described for the construction of the GR/mPPAR and GR/NUC chimeric receptors in Schmidt et al., "Identification of a new member of the steroid hormone receptor superfamily that is activated by a peroxisome proliferator and fatty acids," Mol. Endocrinol., 6(10):1634-41, 1992, and in Boie et al., "Enantioselective activation of the peroxisome proliferator-activated receptor", J. Biol. Chem. 268(8):5530-4, 1993.
# (§2) Briefly, the amino terminal portion of the mouse glucocorticoid receptor (mGR), that includes the DNA binding domain was fused to the putative ligand binding domains of the nuclear receptor NER, hNUC-I (Schmidt et al., 1992), mPPAR (Issenmann and Green, 1990) to form the respective chimeric receptors GR/NER, GR/NUC and GR/PPAR. The GR/NER chimeric receptor was constructed as described for the GR/NUC and GR/PPAR hybrid receptors (Schmidt et al., 1992; Boie et al). The cDNA sequences coding for amino acids Arg^155 and Glu^156 of the NER receptor were converted to the Xho I restriction site, that was later used for the ligation to the GR cDNA sequences that coded for the DNA binding domain. Thus, converting amino acid residues Arg^155 and Glu^156 of NER receptor to amino acid residues Ser^155 and His^156.
# The ligand transcription assay mediated by GR/PPAR in COS cells was performed as described in Example 4. The cells were treated with TOFA and Cerulenin at 0.1, 1, 10 and 100 μM.
# GR/NER chimeric receptor [5] = test: Ligand dependent transcription assay, GR/NER chimeric receptor with MMTV-luciferase reporter; format: cell-based, human
# Description: To search for putative ligands for the NER receptor, the chimeric receptor GR/NER was prepared. […] Chimeric receptors were prepared in which the amino terminal portion of the mouse glucocorticoid receptor (mGR) that includes the DNA binding domain was fused to the putative ligand binding domains of the nuclear receptor NER to form the respective chimeric receptor GR/NER. The cDNA sequences coding for amino acid residues Arg^155 and Glu^156 of the hNER receptor (Shinar et al., NER, a new member of a gene family encoding the steroid hormone nuclear receptor; GENE (in press) were convened to the Xho I restriction site, which site was later used for the ligation to the GR cDNA sequences that coded for the DNA binding domain. Thus, the amino acid residues Arg^155 and Glu^156 of the NER receptor were convened to amino acid residues Ser^155 and His^156.
# The chimera was employed in ligand dependent transactivation assays with the reporter gene MMTV-luciferase, in which the luciferase cDNA is transcribed under the control of the MMTV promoter.
# as §1, §2
# [6] = molecular target: T2, native mouse glucocorticoid receptor (Mus musculus, UniProt P06537); test: Transcription assay, native glucocorticoid receptor co-transfected with MMTV-luciferase reporter; details: read-out: Fold of stimulation GR
# T2 sequence (P06537 1-792): T1 sequence (P06537 1-792 partner)
# Description: (§3) The reporter gene was the plasmid pJA358 in which the expression of firefly luciferase is regulated by two tandem repeats of the glucocorticoid hormone response element (GRE) linked to the MMTV promoter (Boie et al., 1993).
# (§4) Transient transfection of COS and CV1 cells was performed as described (Schmidt 1992). Cells were plated (1.5×10^5 in 1 mL) into 12 well dishes in phenol red-free medium supplemented with activated charcoal treated fetal calf serum. The next day 0.12 mL of DNA 10 μg/ml (5 μg receptor DNA and 5 μg reporter plasmid), as a calcium phosphate precipitate, was added to the cells. Ligands were added to the cells 30 minutes after transfection. The next day (18 hours), the cells were washed and fresh ligands added. Twenty-four hours later, cell extracts were prepared and assayed for luciferase enzyme activity using the luciferase assay system (Promega Madison, Wis.). Each transfection was performed in triplicate and the luciferase activity of each sample measured in duplicate using the AutoClinilumat (Berthold Nashua, N.H.).
# (§5) The transfected cells were treated with TOFA at 2 μM, 10 μM, 20 μM, and 50 μM and oleic acid at 50 μM, and 300 μM.
# human NUCI receptor = molecular target: T3, human NUCI receptor (Homo sapiens, UniProt Q03181); test: Transcription assay, native NUC-I receptor co-transfected with MMTV-luciferase reporter; details: read-out: Fold of stimulation NUC-I
# T3 sequence (Q03181 1-441): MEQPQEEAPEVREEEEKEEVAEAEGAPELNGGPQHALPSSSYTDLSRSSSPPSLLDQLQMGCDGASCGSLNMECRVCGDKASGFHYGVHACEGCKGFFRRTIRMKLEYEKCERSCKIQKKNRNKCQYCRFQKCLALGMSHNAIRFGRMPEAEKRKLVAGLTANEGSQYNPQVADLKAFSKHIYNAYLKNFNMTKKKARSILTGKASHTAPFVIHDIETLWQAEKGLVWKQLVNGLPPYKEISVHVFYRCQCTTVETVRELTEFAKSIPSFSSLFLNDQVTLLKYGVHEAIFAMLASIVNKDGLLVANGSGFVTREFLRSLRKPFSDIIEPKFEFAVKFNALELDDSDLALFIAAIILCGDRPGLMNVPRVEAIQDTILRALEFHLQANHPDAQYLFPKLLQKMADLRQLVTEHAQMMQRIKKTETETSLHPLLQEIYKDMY
# Description: as §3, §4, §5
# [7] = molecular target: T1, GR/PPAR chimeric receptor; test: Ligand dependent transcription assay, GR/PPAR chimeric receptor with MMTV-luciferase reporter; format: cell-based; details: read-out: Fold of stimulation GR/PPAR
# GR/NUC chimeric receptor = molecular target: T4, GR/NUC chimeric receptor (Homo sapiens, UniProt Q03181); test: Ligand dependent transcription assay, GR/NUC chimeric receptor with MMTV-luciferase reporter; format: cell-based
# T4 construct: transfected cells, MMTV-luciferase
# T4 sequence (Q03181 1-441): T3 sequence (Q03181 1-441)
# T4 sequence (P06537 1-792 partner): T1 sequence (P06537 1-792 partner)
# Description: as §1, §2
compound,measurement,setting,value
"NCCc1ccc(O)c(O)c1 [Dopamine, dopamine]",Fold of stimulation GR/NER,"GR/NER chimeric receptor [1]; dopamine 0.1 μM, 1440 min",1.10 ± 0.07 fold
same,Fold of stimulation GR/NER,GR/NER chimeric receptor [1]; dopamine 1.0 μM,0.87 ± 0.06 fold
same,Fold of stimulation GR/NER,"GR/NER chimeric receptor [1]; dopamine 10 μM, 1440 min",0.84 ± 0.08 fold
same,Fold of stimulation GR/NER,"GR/NER chimeric receptor [1]; dopamine 100 μM, 1440 min",0.87 ± 0.11 fold
same,Suppression of GR/NER mediated transcription in COS-7 cells,GR/NER chimeric receptor [1]; no significant dopamine D1 receptor expression,suppression was not seen
same,Effect on transcription mediated by GR/NER in CV1 cells,GR/NER chimeric receptor [2],suppressed the transcription
same,Fold of stimulation GR/NER,GR/NER chimeric receptor [2]; dopamine 0.1 μM,1.28 ± 0.05 fold
same,Fold of stimulation GR/NER,GR/NER chimeric receptor [2]; dopamine 1.0 μM,0.88 ± 0.11 fold
same,Fold of stimulation GR/NER,GR/NER chimeric receptor [2]; dopamine 10 μM,0.55 ± 0.06 fold
same,Fold of stimulation GR/NER,GR/NER chimeric receptor [2]; dopamine 100 μM,0.44 ± 0.14 fold
"O=C(CCCN1CCC(O)(c2ccc(Cl)cc2)CC1)c1ccc(F)cc1 [Haloperidol, haloperidol, reference compound]",Catalepsy Duration,[3],20.3 ± 6.7 s
"CCCCCCCC/C=C\CCCCCCCC(=O)O [Oleic Acid, oleic acid, reference compound]",Expression mediated by GR/PPAR,[4],activated expression
same,Expression mediated by GR/NER,GR/NER chimeric receptor [5],not by the GR/NER chimera
same,Fold of stimulation GR/NER,GR/NER chimeric receptor [5]; 50 μM,0.90 ± 0.13 fold
same,Fold of stimulation GR/NER,GR/NER chimeric receptor [5]; 300 μM,0.73 ± 0.21 fold
same,fold induction at 150 µM,[6],0.44 ± 0.17
same,fold induction at 150 µM,human NUCI receptor,0.55 ± 0.08
same,fold induction at 50 µM,[7],2.87 ± 0.2
same,fold induction at 300 µM,[7],14.69 ± 0.06
same,Expression mediated by GR/NUC,GR/NUC chimeric receptor,activated expression
same,fold induction at 150 µM,GR/NUC chimeric receptor; read-out: Fold of stimulation GR/NUC,3.42 ± 0.28
